In US20090203775A1, “Novel compound and a novel microorganism for producing the novel compound” (Haiyi Biotech Pte, Ltd., priority 2005, published 2009) one finds IC50 data, which are given here for one compound.

≈ marks a conversion by molar mass, not a printed value.

The subject of this assay is Coxsakie B3 virus. Description: organism not typed. It counts as cell-based. The note with it: 36 h, read-out: IC50 (half inhibitory concentration for the virus). The procedure: Treatment of the sample: The sample was first dissolved in DMSO to appropriate concentration. The sample solutions were then diluted the samples in culture medium solution to obtain eight concentrations.
Methods: The Veo cells were cultured in 96-well plates. The cells were infected with Coxsakie B3 virus for 2 hours after 24 hours of incubation. The solution containing the virus was then discarded. The samples were then added into the wells at the concentrations with the appropriate controls. The cell pathological extent (CPE) was observed 36 hours later. The half inhibitory concentration (IC50) was calculated by using the method of Reed-Muench.
(1) “-” means that the sample has no anti Coxsakie B3 virus effect at the maximal dose with no toxicity. (2) TC50 indicates the half toxic concentration; IC50 indicates the half inhibitory concentration for the virus; SI indicates the selective index, calculated as the follow: SI=TC50/IC50

On to `NC(=O)c1ncn([C@@H]2O[C@H](CO)[C@@H](O)[C@H]2O)n1` [RBV, Ribavirin, reference compound], for which the IC50 is 448 µg/mL (≈ 1830 µM).
